Experimental data published in ChEMBL document CHEMBL5518180, “Design, synthesis, and biological evaluation of harmine derivatives as topoisomerase I inhibitors for cancer treatment” (Eur J Med Chem, 2024).

Assays:
[1] = tested on: MDA-MB-231; test: Antiproliferative activity against human MDA-MB-231 cells assessed as inhibition of cell growth incubated for 48 hrs by MTT assay; type: functional, cell-based; details: MDA-MB-231, 48 h
[2] = tested on: HepG2; test: Antiproliferative activity against human HepG2 cells assessed as inhibition of cell growth incubated for 48 hrs by MTT assay; type: functional, cell-based; details: HepG2, 48 h
[3] = tested on: A549; test: Antiproliferative activity against human A549 cells assessed as inhibition of cell growth incubated for 48 hrs by MTT assay; type: functional, cell-based; details: A549, 48 h
[4] = tested on: MCF7; test: Inhibition of colony formation in human MCF7 cells incubated for 2 weeks by crystal violet staining based analysis; type: functional, cell-based; details: dose 0.075-1.2 µM
[5] = tested on: MCF7; test: Induction of apoptosis in human MCF7 cells assessed as viable cells at 0.1 uM incubated for 24 hrs by Annexin V-FITC/Propidium Iodide staining based flow cytometry analysis (reference value: 91.8 %); type: functional; details: read-out: Activity
[6] = tested on: MCF7; test: Induction of apoptosis in human MCF7 cells assessed as early apoptotic cells at 0.1 uM incubated for 24 hrs by Annexin V-FITC/Propidium Iodide staining based flow cytometry analysis (reference value: 2.54 %); type: functional
[7] = tested on: MCF7; test: Induction of apoptosis in human MCF7 cells assessed as early apoptotic cells at 0.5 uM incubated for 24 hrs by Annexin V-FITC/Propidium Iodide staining based flow cytometry analysis (reference value: 2.54 %); type: functional
[8] = tested on: MCF7; test: Induction of apoptosis in human MCF7 cells assessed as necrotic cells at 0.5 uM incubated for 24 hrs by Annexin V-FITC/Propidium Iodide staining based flow cytometry analysis (reference value: 0.082 %); type: functional
[9] = tested on: MCF7; test: Induction of apoptosis in human MCF7 cells assessed as decrease in Bcl-2 protein level incubated for 24 hrs by Western blotting analysis; type: functional, cell-based; details: dose 0.1-2 µM
[10] = tested on: MCF7; test: Induction of apoptosis in human MCF7 cells assessed as increase in Bax protein expression incubated for 24 hrs by Western blotting analysis; type: functional, cell-based; details: dose 0.1-2 µM
[11] = tested on: MCF7; test: Induction of DNA double-strand breaks in human MCF7 cells assessed as increase in gamma-H2AX incubated for 48 hrs by DAPI staining based confocal laser scanning microscopy; type: functional, cell-based; details: dose 0.25-1 µM
[12] = tested on: 4T1; test: Antitumor activity against mouse 4T1 cells transplanted in BALB/c mouse assessed as tumor growth inhibition rate at 5 mg/kg, ip administered for 14 days relative to control; type: functional; details: 4T1, 336 h, time 14 day, read-out: TGI
[13] = tested on: 4T1; test: Antitumor activity against mouse 4T1 cells transplanted in BALB/c mouse assessed as tumor growth inhibition administered for 14 days; type: functional; details: dose 5-20 mg/kg, route ip, time 14.0 day
[14] = tested on: 4T1; test: Antitumor activity against mouse 4T1 cells transplanted in BALB/c mouse assessed as tumor growth inhibition rate at 10 mg/kg, ip administered for 14 days relative to control; type: functional; parameters: scale not given: the % may be the effect or the level left; details: time 14 day
[15] = Toxicity in BALB/c mouse transplanted with […] cells assessed as change in body weight at 5 to 20 mg/kg, ip administered for 14 days; type: organism-based; details: in vivo, 336 h, dose 5-20 mg/kg, time 14 day
[16] = Toxicity in BALB/c mouse transplanted with […] cells assessed as lung damage at 5 to 20 mg/kg, ip administered for 14 days by hematoxylin and eosin staining based analysis; type: organism-based; details: in vivo, 336 h, dose 5-20 mg/kg, time 14 day
[17] = Toxicity in BALB/c mouse transplanted with […] cells assessed as kidney damage at 5 to 20 mg/kg, ip administered for 14 days by hematoxylin and eosin staining based analysis; type: organism-based; details: in vivo, 336 h, dose 5-20 mg/kg, time 14 day
[18] = Toxicity in BALB/c mouse transplanted with […] cells assessed as change in serum alanine aminotransferase level at 5 to 20 mg/kg, ip administered for 14 days by biochemical analysis; type: organism-based; details: in vivo, 336 h, dose 5-20 mg/kg, time 14 day
[19] = Toxicity in BALB/c mouse transplanted with […] cells assessed as change in serum aspartate aminotransferase level at 5 to 20 mg/kg, ip administered for 14 days by biochemical analysis; type: organism-based; details: in vivo, 336 h, dose 5-20 mg/kg, time 14 day
[20] = Toxicity in BALB/c mouse transplanted with […] cells assessed as change in blood urea nitrogen level at 5 to 20 mg/kg, ip administered for 14 days by biochemical analysis; type: organism-based; details: in vivo, 336 h, dose 5-20 mg/kg, time 14 day
[21] = Toxicity in BALB/c mouse transplanted with […] cells assessed as change in creatinine level at 5 to 20 mg/kg, ip administered for 14 days by biochemical analysis; type: organism-based; details: in vivo, 336 h, dose 5-20 mg/kg, time 14 day
[22] = Toxicity in BALB/c mouse transplanted with […] cells assessed as change in creatine kinase level at 5 to 20 mg/kg, ip administered for 14 days by biochemical analysis; type: organism-based; details: in vivo, 336 h, dose 5-20 mg/kg, time 14 day
[23] = Toxicity in BALB/c mouse transplanted with […] cells assessed as change in lactate dehydrogenase level at 5 to 20 mg/kg, ip administered for 14 days by biochemical analysis; type: organism-based; details: in vivo, 336 h, dose 5-20 mg/kg, time 14 day
[24] = tested on: 4T1; test: Antitumor activity against mouse 4T1 cells transplanted in BALB/c mouse assessed as tumor growth inhibition rate at 20 mg/kg, ip administered for 14 days relative to control; type: functional; details: 4T1, 336 h, time 14 day, read-out: TGI

IC50 [1]: 980 nM | IC50 [2]: 1610 nM | IC50 [3]: 2020 nM
SMILES: O=C(/C=C/c1ccc(Cl)c([N+](=O)[O-])c1)c1nccc2c1[nH]c1ccccc12
inhibition [4]: Dose-Dependent Effect | viability at 0.1 µM [5]: 85.3% | Activity [6]: 7.52% | Activity [7]: 20.1% | Activity [8]: 0.27% | Activity [9]: Dose-Dependent Effect | Activity [10]: Dose-Dependent Effect | Activity [11]: Dose-Dependent Effect | inhibition in vivo at 5 mg/kg [12]: 21.7% | TGI [13]: Dose-Dependent Effect | Activity [14]: 43.19% | Activity [15]: Non-Toxic | Activity [16]: Non-Toxic | Activity [17]: Non-Toxic | Activity [18]: Non-Toxic | Activity [19]: Non-Toxic | Activity [20]: Non-Toxic | Activity [21]: Non-Toxic | Activity [22]: Non-Toxic | Activity [23]: Non-Toxic | inhibition in vivo at 20 mg/kg [24]: 63.9%
